Patent US11634393B2, “Substituted tolyl fungicides” (FMC CORPORATION, priority 2018, dated 2023)

How the values were obtained:
[1] = test system: Puccinia recondita f. sp. tritici; test: Test B: wheat leaf rust, spray on wheat seedlings, disease control rating; type: in vivo; details: Rate 10 ppm, 100 = 100% disease control, 0 = no disease control relative to the controls; for pest or weed control at 10 ppm: Puccinia recondita, 192 h
Excerpt: (§1) General protocol for preparing test suspensions for Tests A-F: the test compounds were first dissolved in acetone in an amount equal to 3% of the final volume and then suspended at the desired concentration (in ppm) in acetone and purified water (50/50 mix by volume) containing 250 ppm of the surfactant PEG400 (polyhydric alcohol esters). The resulting test suspensions were then used in Tests A-F.
The test solution was sprayed to the point of run-off on wheat seedlings. The following day the seedlings were inoculated with a spore suspension of Puccinia recondita f. sp. tritici (the causal agent of wheat leaf rust) and incubated in a saturated atmosphere at 20° C. for 24 h, and then moved to a growth chamber at 20° C. for 7 days, after which time disease ratings were made.
(§2) A rating of 100 indicates 100% disease control and a rating of 0 indicates no disease control (relative to the controls). A dash (-) indicates the compound was not tested.

[2] = test system: Phakopsora pachyrhizi; test: Test D: Asian soybean rust, spray on soybean seedlings, disease control rating; type: in vivo; details: Rate 10 ppm, 100 = 100% disease control, 0 = no disease control relative to the controls; for pest or weed control at 10 ppm: Phakopsora pachyrhizi, 216 h
Excerpt: as §1
The test solution was sprayed to the point of run-off on soybean seedlings. The following day the seedlings were inoculated with a spore suspension of Phakopsora pachyrhizi (the causal agent of Asian soybean rust) and incubated in a saturated atmosphere at 22° C. for 24 h and then moved to a growth chamber at 22° C. for 8 days, after which time visual disease ratings were made.
as §2

Row | Structure (SMILES) | Test B disease control rating [1] | Test D disease control rating [2] | pest or weed control at 10 ppm [1] | pest or weed control at 10 ppm [2]
1 | COC(=O)NCc1cc(-c2ccn(-c3c(F)cc(NC(=O)OC)cc3F)n2)ccc1C [Compound 24] | 0% | 75% |  | 
2 | COC(=O)NCc1cc(-c2ccn(-c3c(F)cc(C4CC4(Cl)Cl)cc3F)n2)ccc1C (stereo not drawn) [Compound 88] | 100% | 100% |  | 
3 | COC(=O)NCc1cc(-c2ccn(-c3c(SC)cc(F)cc3SC)n2)ccc1C [Compound 20] |  |  | 0% | 0%
4 | COC(=O)NCc1cc(-c2ccn(-c3c(F)cc(F)cc3SC)n2)ccc1C [Compound 19] |  |  | 0% | 81%
5 | COC(=O)NCc1cc(-c2ccn(-c3c(Cl)cc(Cl)cc3Cl)n2)ccc1C [Compound 57] |  |  | 74% | 100%
6 | COC(=O)NCc1cc(-c2ccn(-c3c(Cl)cccc3Br)n2)ccc1C [Compound 60] |  |  | 68% | 100%
7 | COC(=O)NCc1cc(-c2ccn(-c3c(Cl)cc(N)cc3Cl)n2)ccc1C [Compound 55] |  |  | 0% | 0%
8 | COC(=O)NCc1cc(-c2ccn(-c3c(F)cc(N)cc3F)n2)ccc1C [Compound 5, methyl N-[[5-[1-(4-amino-2,6-difluorophenyl)-1H-pyrazol-3-yl]-2-methylphenyl]methyl]carbamate] |  |  | 0% | 0%
9 | COC(=O)NCc1cc(-c2ccn(-c3c(F)cc(OCC(C)C)cc3F)n2)ccc1C [Compound 12] | 98% | 100% |  | 
10 | COC(=O)NCc1cc(-c2cnn(-c3c(F)cc(C(C)=NOC(C)C)cc3F)n2)ccc1C [Compound 143] | 74% | 100% |  | 
11 | COC(=O)NCc1cc(-c2ccn(-c3c(F)cc(C=NOC(C)C)cc3F)n2)ccc1C [Compound 82] | 95% | 100% |  | 
12 | COC(=O)NCc1cc(-c2ccn(-c3c(F)cc(OCC4CCCO4)cc3F)n2)ccc1C (stereo not drawn) [Compound 23] | 68% | 25% |  | 
13 | COC(=O)NCc1cc(-c2ccn(-c3c(F)cc(SC(C)(C)C)cc3F)n2)ccc1C [Compound 42, methyl N-[[5-[1-[4-[(1,1-dimethylethyl)thio]-2,6-difluorophenyl]-1H-pyrazol-3-yl]-2-methylphenyl]methyl]carbamate] |  |  | 100% | 73%
14 | COC(=O)NCc1cc(-c2ccn(-c3c(F)cc(SC)cc3F)n2)ccc1C [Compound 27] |  |  | 99% | 100%
15 | COC(=O)NCc1cc(-c2ccn(-c3c(F)cc(C(F)F)cc3F)n2)ccc1C [Compound 87, methyl N-[[5-[1-[4-(difluoromethyl)-2,6-difluorophenyl]-1H-pyrazol-3-yl]-2-methylphenyl]methyl]carbamate] |  |  | 100% | 100%
16 | COC(=O)NCc1cc(-c2ccn(-c3c(F)cc(C4CC4)cc3F)n2)ccc1C [Compound 41, methyl N-[[5-[1-(4-cyclopropyl-2,6-difluorophenyl)-1H-pyrazol-3-yl]-2-methylphenyl]methyl]carbamate] |  |  | 100% | 100%
17 | COC(=O)NCc1cc(-c2ccn(-c3c(Br)cccc3Br)n2)ccc1C [Compound 58] |  |  | 68% | 100%
18 | COC(=O)NCc1cc(-c2ccn(-c3c(F)cc(C4OCCCO4)cc3F)n2)ccc1C [Compound 134] |  |  | 89% | 100%

Row | Structure (SMILES) | Test B disease control rating [1] | Test D disease control rating [2] | pest or weed control at 10 ppm [1] | pest or weed control at 10 ppm [2]
19 | COC(=O)NCc1cc(-c2cnn(-c3c(F)cc(CC(C)C)cc3F)n2)ccc1C [Compound 109] |  |  | 91% | 100%
20 | COC(=O)NCc1cc(-c2ccn(-c3c(F)cc(OCC4COC4)cc3F)n2)ccc1C [Compound 32] | 0% | 77% |  | 
21 | C=CCOc1cc(F)c(-n2ccc(-c3ccc(C)c(CNC(=O)OC)c3)n2)c(F)c1 [Compound 94] | 85% | 99% |  | 
22 | COC(=O)NCc1cc(-c2ccn(-c3c(F)cc(CF)cc3F)n2)ccc1C [Compound 77] |  |  | 100% | 100%
23 | COC(=O)NCc1cc(-c2ccn(-c3c(C)cc([N+](=O)[O-])cc3C)n2)ccc1C [Compound 35] |  |  | 0% | 0%
24 | COC(=O)NCc1cc(-c2ccn(-c3c(F)cc(OC4COC4)cc3F)n2)ccc1C [Compound 21] | 55% | 100% |  | 
25 | C=C(C)c1cc(F)c(-n2ccc(-c3ccc(C)c(CNC(=O)OC)c3)n2)c(F)c1 [Compound 62] | 99% | 100% |  | 
26 | CCON=Cc1cc(F)c(-n2ccc(-c3ccc(C)c(CNC(=O)OC)c3)n2)c(F)c1 [Compound 80] | 100% | 100% |  | 
27 | COC(=O)NCc1cc(-c2cn(-c3c(OC)cc(OC)cc3OC)nn2)ccc1C [Compound 127] |  |  | 0% | 0%
28 | C#Cc1cc(F)c(-n2ccc(-c3ccc(C)c(CNC(=O)OC)c3)n2)c(F)c1 [Compound 53, methyl N-[[5-[1-(4-ethynyl-2,6-difluorophenyl)-1H-pyrazol-3-yl]-2-methylphenyl]methyl]carbamate] |  |  | 100% | 100%
29 | COC(=O)NCc1cc(-c2cnn(-c3c(F)cc(Cl)cc3F)n2)ccc1C [Compound 117, methyl N-[[5-[2-(4-chloro-2,6-difluorophenyl)-2H-1,2,3-triazol-4-yl]-2-methylphenyl]methyl]carbamate] |  |  | 100% | 100%
30 | COC(=O)NCc1cc(-c2cnn(-c3c(F)cc(C(C)=O)cc3F)n2)ccc1C [Compound 140] | 41% | 71% |  | 
31 | COC(=O)NCc1cc(-c2ccn(-c3c(Cl)cc(C(C)C)cc3Cl)n2)ccc1C [Compound 135] |  |  | 86% | 100%
32 | COC(=O)NCc1cc(-c2ccn(-c3c(F)cc(I)cc3F)n2)ccc1C [Compound 8, methyl N-[[5-[1-(2,6-difluoro-4-iodophenyl)-1H-pyrazol-3-yl]-2-methylphenyl]methyl]carbamate] |  |  | 100% | 100%
33 | COC(=O)NCc1cc(-c2ccn(-c3c(Cl)cc(C(F)(C(F)(F)F)C(F)(F)F)cc3Cl)n2)ccc1C [Compound 138] | 74% | 87% |  | 
34 | COC(=O)NCc1cc(-c2ccn(-c3c(F)cc(SC(F)F)cc3F)n2)ccc1C [Compound 43, methyl N-[[5-[1-[4-[(difluoromethyl)thio]-2,6-difluorophenyl]-1H-pyrazol-3-yl]-2-methylphenyl]methyl]carbamate] |  |  | 100% | 100%
35 | C=C(C)c1cc(F)c(-n2ncc(-c3ccc(C)c(CNC(=O)OC)c3)n2)c(F)c1 [Compound 110] | 95% | 100% |  | 
36 | COC(=O)NCc1cc(-c2ccn(-c3c(F)cc(OCF)cc3F)n2)ccc1C [Compound 73] |  |  | 100% | 100%
